Patent US4339535A, “Process for preparing antibiotic EM 4940” (E. R. Squibb & Sons, Inc., priority 1980, dated 1982)

How the values were obtained:
[1] = test system: Shigella sonnei; assay: MIC aerobic screen, BA-2 agar; assay type: cell-based; conditions: Table II, additional tests; strain 8449
[2] = solubility; assay type: physicochemical; conditions: acetonitrile
[3] = test system: Acinetobacter calcoaceticus; assay: MIC aerobic screen, BA-2 agar; conditions: Table II, additional tests; strain 8333
[4] = test system: Enterobacter cloacae; assay: MIC aerobic screen, BA-2 agar; conditions: Table II, additional tests; strain 10,459
[5] = test system: Escherichia coli; assay: MIC aerobic screen, BA-2 agar; conditions: Table II, additional tests
[6] = test system: Klebsiella aerogenes; assay: MIC aerobic screen, BA-2 agar; conditions: Table II, additional tests; strain 10,436
[7] = test system: Klebsiella pneumoniae; assay: MIC aerobic screen, BA-2 agar; conditions: Table II, additional tests; strain 11,066
[8] = test system: Proteus morganii; assay: MIC aerobic screen, BA-2 agar; conditions: Table II, additional tests; strain 9774
[9] = test system: Pseudomonas aeruginosa; assay: MIC aerobic screen, BA-2 agar; conditions: Table II, additional tests
[10] = test system: Salmonella typhimurium; assay: MIC aerobic screen, BA-2 agar; conditions: Table II, additional tests; strain 9201
[11] = test system: Serratia marcescens; assay: MIC aerobic screen, BA-2 agar; conditions: Table II, additional tests
[12] = test system: Staphylococcus aureus; assay: MIC aerobic screen, BA-2 agar; conditions: Table II, additional tests
[13] = test system: Streptococcus faecalis; assay: MIC aerobic screen, BA-2 agar; conditions: Table II, additional tests; strain 9011
[14] = test system: Proteus rettgeri; assay: MIC aerobic screen, BA-2 agar; conditions: Table II, additional tests; strain 8217

With `CC1(O)CC(C(N)=O)N=C1c1ncccc1O` (stereo not drawn) [EM4940B, 2,4-cis-3,4-dihydro-4-hydroxy-5-(3-hydroxy-2-pyridinyl)-4-methyl-2H-pyrrole-2-carboxamide] the “Minimum Inhibitory Concentration” value [1] was 50 µg/mL, the “solubility of B form relative to A form” value [2] was “more soluble” and the “Minimum Inhibitory Concentration” value [3] was 100 µg/mL. For the same molecule, the “Minimum Inhibitory Concentration” value [4] was 100 µg/mL, the “Minimum Inhibitory Concentration” value ([5]; strain 10,404) was 50 µg/mL and the “Minimum Inhibitory Concentration” value ([5]; strain 10,857) was 50 µg/mL. The “Minimum Inhibitory Concentration” value [6] was 50 µg/mL, the “Minimum Inhibitory Concentration” value [7] was 50 µg/mL and the “Minimum Inhibitory Concentration” value [8] was 100 µg/mL. For the same molecule, the “Minimum Inhibitory Concentration” value ([9]; strain 8754) was 100 µg/mL, the “Minimum Inhibitory Concentration” value ([9]; strain 9330) was over 200 µg/mL and the “Minimum Inhibitory Concentration” value ([9]; strain 9545) was 12.5 µg/mL. For the same molecule, the “Minimum Inhibitory Concentration” value [10] was 50 µg/mL, the “Minimum Inhibitory Concentration” value ([11]; strain 9782) was 50 µg/mL and the “Minimum Inhibitory Concentration” value ([11]; strain 11,111) was 100 µg/mL. The “Minimum Inhibitory Concentration” value ([12]; strain 2400) was over 200 µg/mL, the “Minimum Inhibitory Concentration” value ([12]; strain 2661) was over 200 µg/mL and the “Minimum Inhibitory Concentration” value ([12]; strain 10,165) was 100 µg/mL. For the same molecule, the “Minimum Inhibitory Concentration” value ([12]; strain 11,239) was 100 µg/mL, the “Minimum Inhibitory Concentration” value [13] was over 200 µg/mL and the “Minimum Inhibitory Concentration” value [14] was 50 µg/mL.
